Results published in patent US10689378B2, “Triazolopyridine compounds and uses thereof” (Novartis AG, priority 2016, dated 2020).

What was measured:
[1] = biological target: wild type PRC2 (wtPRC2) complex (Homo sapiens, UniProt O75530); assay: EED LC-MS assay (SAH production by PRC2); format: biochemical; conditions: read-out: (b) IC50, EED LC-MS Qualified
Experimental: Compounds of the present invention were assessed for their ability to inhibit PRC2 activity in a pentameric complex of EZH2, SUZ12, EED, Rbap48 and AEBP in biochemical assays. The ability of compounds of the present invention to inhibit cellular activity of PRC2 was assessed by analysing histone H3 lysine 27 methylation in human cell lines. The ability of compounds of the present invention to inhibit cancers was derived from their ability to modulate activity in human cancer cell lines bearing specific dependence to PRC2 activity to maintain cancerous growth.
Representative compounds of the present invention were serially and separately diluted 3-fold in DMSO to obtain a total of eight or twelve concentrations. Then the test compounds at each concentration (120 nL of each) were transferred by Mosquito into a 384-well Perkin Elmer ProxiPlate 384 plus plates. Solutions (6 μL) of 24 nM the wild type PRC2 (wtPRC2) complex and 2 μM SAM in reaction buffer (20 mM Tris, pH 8.0, 0.1% BSA, 0.01% Triton, 0.5 mM DTT) were added to the wells that were then incubated with the test compound for 20 min. A 6 μL solution of 3 μM of the peptide substrate H3K27Me0 (histone H3[21-44]-biotin) in reaction buffer was added to initiate each reaction. The final components in the reaction solution include 12 nM wtPRC2 complex, 1 μM SAM, and 1.5 μM H3K27me0 peptide with varying concentration of the compounds. A positive control consisted of the enzyme, 1 μM SAM and 1.5 μM substrate in the absence of the test compound, and a negative control consisted of 1 μM SAM and 1.5 μM substrate only. Each reaction was incubated at rt for 120 min, then stopped by addition of 3 μL per of quench solution (2.5% TFA with 320 nM d4-SAH). The reaction mixture was centrifuged (Eppendorf centrifuge 5810, Rotor A-4-62) for 2 min at 2000 rpm and read on an API 4000 triple quadrupole mass spec with Turbulon Spray (Applied Biosystem) coupled with Prominence UFLC (Shimadzu). The levels of SAH production were then normalized based on the values coming from the positive and negative controls to give percent enzyme activities. The data were then fit to a dose response equation using the program Helios to get the IC50 values of the test compound.

[2] = tested on: H3K27 methylation in G401 cell; assay: ELISA (H3K27 methylation) assay in G401 cells; format: cell-based, human; conditions: Homo sapiens, G-401, read-out: (c) IC50, ELISA Qualified
Procedure, shortened: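 G401 cells treated 48 h with 3-fold dilutions (8 or 12 points, top 20 μM). Acid-extracted histones probed by ELISA for H3K27me3 or H3K27me2 with ECL readout, normalized to total H3. Percent inhibition versus DMSO fitted to dose-response curve for IC50.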

[3] = biological target: T1, EED (1-441)-His protein (Homo sapiens, UniProt O75530); assay: EED-H3K27Me3 peptide competition binding assay by AlphaScreen; conditions: read-out: (a) IC50, EED Alphascreen binding Qualified
T1 construct: 30 nM EED (1-441)-His protein
T1 sequence (O75530 whole entry): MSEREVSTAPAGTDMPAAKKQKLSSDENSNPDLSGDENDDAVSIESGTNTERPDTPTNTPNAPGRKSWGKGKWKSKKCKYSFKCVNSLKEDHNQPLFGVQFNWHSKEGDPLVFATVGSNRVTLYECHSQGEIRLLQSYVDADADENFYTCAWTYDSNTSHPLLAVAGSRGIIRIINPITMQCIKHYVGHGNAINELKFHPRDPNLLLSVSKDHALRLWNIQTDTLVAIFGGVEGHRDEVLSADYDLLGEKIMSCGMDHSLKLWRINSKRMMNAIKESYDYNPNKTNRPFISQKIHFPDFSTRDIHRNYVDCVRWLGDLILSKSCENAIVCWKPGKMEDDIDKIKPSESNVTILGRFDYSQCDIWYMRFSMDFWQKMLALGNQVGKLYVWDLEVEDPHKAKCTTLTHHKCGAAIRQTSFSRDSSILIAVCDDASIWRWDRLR
Procedure, shortened: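 Serially diluted compound (12 points, 3-fold) incubated 20 min with 30 nM EED(1-441)-His and 15 nM biotin-H3K27Me3(19-33) peptide in 25 mM HEPES pH 8, 0.02% Tween-20, 0.5% BSA. Ni-chelate acceptor/streptavidin donor beads (10 μg/mL each) added, 1 h rt dark; 615 nm emission normalized to controls, dose-response fit for IC50.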

Chain of wild type PRC2 (wtPRC2) complex (O75530 whole entry): as above
Chain of wild type PRC2 (wtPRC2) complex (Q15910 whole entry partner): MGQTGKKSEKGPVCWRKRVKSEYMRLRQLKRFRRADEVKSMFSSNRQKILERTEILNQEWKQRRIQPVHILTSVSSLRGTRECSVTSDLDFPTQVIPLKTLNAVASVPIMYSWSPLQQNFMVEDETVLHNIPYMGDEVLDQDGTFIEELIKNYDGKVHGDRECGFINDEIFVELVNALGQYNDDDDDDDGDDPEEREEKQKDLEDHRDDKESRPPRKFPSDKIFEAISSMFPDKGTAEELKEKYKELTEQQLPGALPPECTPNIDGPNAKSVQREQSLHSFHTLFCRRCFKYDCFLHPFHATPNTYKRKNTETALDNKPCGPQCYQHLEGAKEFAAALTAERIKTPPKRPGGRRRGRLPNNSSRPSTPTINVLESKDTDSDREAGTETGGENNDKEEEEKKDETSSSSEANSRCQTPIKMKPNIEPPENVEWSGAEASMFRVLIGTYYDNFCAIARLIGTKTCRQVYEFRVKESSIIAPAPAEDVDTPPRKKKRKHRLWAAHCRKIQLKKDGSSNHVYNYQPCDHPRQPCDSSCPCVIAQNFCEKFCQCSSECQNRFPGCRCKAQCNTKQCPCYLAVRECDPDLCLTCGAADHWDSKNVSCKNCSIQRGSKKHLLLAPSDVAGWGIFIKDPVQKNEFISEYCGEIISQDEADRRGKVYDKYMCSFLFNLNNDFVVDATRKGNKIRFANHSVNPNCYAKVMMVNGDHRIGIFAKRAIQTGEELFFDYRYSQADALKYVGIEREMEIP
Chain of wild type PRC2 (wtPRC2) complex (Q15022 whole entry partner): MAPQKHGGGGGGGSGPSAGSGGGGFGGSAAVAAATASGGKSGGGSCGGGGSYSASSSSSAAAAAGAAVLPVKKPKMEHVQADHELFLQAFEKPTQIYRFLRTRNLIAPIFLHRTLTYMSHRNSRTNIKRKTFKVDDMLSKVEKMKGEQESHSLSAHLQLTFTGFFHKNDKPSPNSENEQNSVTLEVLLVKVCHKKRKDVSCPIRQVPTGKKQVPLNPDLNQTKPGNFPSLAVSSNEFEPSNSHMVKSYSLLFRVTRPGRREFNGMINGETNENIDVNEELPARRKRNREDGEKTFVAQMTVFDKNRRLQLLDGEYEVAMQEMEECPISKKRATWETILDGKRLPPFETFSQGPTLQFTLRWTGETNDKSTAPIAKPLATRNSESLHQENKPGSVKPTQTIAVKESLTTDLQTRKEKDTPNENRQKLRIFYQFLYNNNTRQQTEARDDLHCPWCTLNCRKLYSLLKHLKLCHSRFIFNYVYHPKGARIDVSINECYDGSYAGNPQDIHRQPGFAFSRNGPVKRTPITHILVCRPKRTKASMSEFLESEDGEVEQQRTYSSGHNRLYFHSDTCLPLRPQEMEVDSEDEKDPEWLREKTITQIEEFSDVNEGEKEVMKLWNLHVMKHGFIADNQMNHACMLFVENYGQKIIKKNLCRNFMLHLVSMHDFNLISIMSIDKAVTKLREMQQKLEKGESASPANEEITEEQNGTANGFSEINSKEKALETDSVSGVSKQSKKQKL
Chain of wild type PRC2 (wtPRC2) complex (Q09028 whole entry partner): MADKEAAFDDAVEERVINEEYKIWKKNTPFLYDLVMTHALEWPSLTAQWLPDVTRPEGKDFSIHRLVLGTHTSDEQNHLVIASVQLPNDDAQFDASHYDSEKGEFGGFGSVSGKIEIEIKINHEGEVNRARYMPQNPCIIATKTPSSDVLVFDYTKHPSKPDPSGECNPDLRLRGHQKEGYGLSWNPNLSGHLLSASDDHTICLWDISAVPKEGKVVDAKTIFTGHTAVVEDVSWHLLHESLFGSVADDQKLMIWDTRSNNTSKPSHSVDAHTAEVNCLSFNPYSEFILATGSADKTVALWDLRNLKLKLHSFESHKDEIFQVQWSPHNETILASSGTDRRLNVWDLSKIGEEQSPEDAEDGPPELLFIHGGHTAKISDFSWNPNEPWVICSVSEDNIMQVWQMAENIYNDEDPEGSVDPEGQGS
Chain of wild type PRC2 (wtPRC2) complex (Q6ZN18 whole entry partner): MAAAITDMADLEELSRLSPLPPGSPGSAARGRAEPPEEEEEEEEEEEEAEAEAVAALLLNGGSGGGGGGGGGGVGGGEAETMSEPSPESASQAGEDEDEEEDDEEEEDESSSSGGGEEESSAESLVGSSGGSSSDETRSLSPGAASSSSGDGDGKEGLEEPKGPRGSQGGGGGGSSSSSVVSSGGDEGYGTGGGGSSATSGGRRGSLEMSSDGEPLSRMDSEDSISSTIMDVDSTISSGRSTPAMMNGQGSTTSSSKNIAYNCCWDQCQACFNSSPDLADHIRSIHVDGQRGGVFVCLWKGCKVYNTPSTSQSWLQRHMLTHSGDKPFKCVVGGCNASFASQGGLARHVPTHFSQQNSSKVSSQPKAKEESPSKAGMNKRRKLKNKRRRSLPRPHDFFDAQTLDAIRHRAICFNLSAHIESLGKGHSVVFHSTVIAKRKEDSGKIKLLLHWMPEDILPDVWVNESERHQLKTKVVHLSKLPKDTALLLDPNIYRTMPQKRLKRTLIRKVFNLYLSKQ

SMILES	IC50 [1] [µM]	IC50 [2] [µM]	IC50 [3] [µM]
COc1ccccc1CNc1ccc(-c2ccnnc2)c2nncn12 [Example 26, N-(2-methoxybenzyl)-8-(pyridazin-4-yl)-[1,2,4] triazolo[4,3-a]pyridin-5-amine]	0.498	0.0477	0.0734
COc1ccccc1CNc1ccc(-c2cccnc2)c2nncn12 [Example 27, N-(2-methoxybenzyl)-8-(pyridin-3-yl)-[1,2,4] triazolo[4,3-a]pyridin-5-amine]	0.266	0.0515	0.0444
COc1ccccc1CNc1ccc(-c2cccc(CN(C)C)c2)c2nncn12 [Example 28, 8-(3-((dimethylamino)methyl)phenyl)-N-(2-methoxybenzyl)-[1,2,4] triazolo[4,3-a]pyridin-5-amine]	0.291	0.054	0.0379
COc1ccccc1CNc1ccc(-c2ccc(CN3CCOCC3)cc2)c2nncn12 [Example 30, N-(2-methoxybenzyl)-8-(4-(morpholinomethyl)phenyl)-[1,2,4]triazolo[4,3-a]pyridin-5-amine]	0.483	0.113	0.0382
COc1cc(F)ccc1CNc1ccc(-c2ccc(CN(C)C)cc2)c2nncn12 [Example 33, 8-(4-((dimethylamino)methyl)phenyl)-N-(4-fluoro-2-methoxybenzyl)-[1,2,4] triazolo[4,3-a]pyridin-5-amine]	0.294	0.277	0.0842
COc1ccccc1CNc1ccc(-c2ccc(S(=O)(=O)N(C)C)cc2)c2nncn12 [Example 34, 4-(5-((2-methoxybenzyl)amino)-[1,2,4]triazolo[4,3-a]pyridin-8-yl)-N,N-dimethyl benzenesulfonamide]	0.358	0.0184	0.0045
COc1ccccc1CNc1ccc(-c2ccc(CN3CCOCC3)nc2)c2nncn12 [Example 38, N-(2-methoxybenzyl)-8-(6-(morpholinomethyl)pyridin-3-yl)-[1,2,4]triazolo[4,3-a] pyridin-5-amine]	0.438	0.0469	0.0325
COc1ccccc1CNc1ccc(-c2ccc(CN3CCN(C)CC3)cc2)c2nncn12 [Example 39, N-(2-methoxybenzyl)-8-(4-((4-methylpiperazin-1-yl)methyl)phenyl)-[1,2,4] triazolo[4,3-a]pyridin-5-amine]	0.269	0.0375	0.0155
COc1ccccc1CNc1ccc(-c2ccc(C[N+](C)(C)[O-])cc2)c2nncn12 [Example 40, 1-(4-(5-((2-methoxybenzyl)amino)-[1,2,4]triazolo[4,3-a]pyridin-8-yl)phenyl)-N,N-dimethylmethanamine oxide]	0.457	0.138	0.078
COc1ccccc1CNc1ccc(-c2ccc(C(=O)N(C)C)cc2)c2nncn12 [Example 41, 4-(5-((2-methoxybenzyl)amino)-[1,2,4]triazolo[4,3-a]pyridin-8-yl)-N,N-dimethyl benzamide]	0.305	0.0474	0.0249
COc1ccccc1CNc1ccc(-c2cc(F)c(CN(C)C)c(F)c2)c2nncn12 [Example 43, 8-(4-((dimethylamino)methyl)-3,5-difluorophenyl)-N-(2-methoxybenzyl)-[1,2,4] triazolo[4,3-a]pyridin-5-amine]	0.785	0.0038	0.0095
COc1ccccc1CNc1ccc(-c2cc(F)c(CN3CCCCC3)c(F)c2)c2nncn12 [Example 44, 8-(3,5-difluoro-4-(piperidin-1-ylmethyl)phenyl)-N-(2-methoxybenzyl)-[1,2,4] triazolo[4,3-a]pyridin-5-amine]	1.1	0.112	0.0748
COc1ccccc1CNc1ccc(-c2ccccc2F)c2nncn12 [Example 47, 8-(2-fluorophenyl)-N-(2-methoxybenzyl)-[1,2,4] triazolo[4,3-a]pyridin-5-amine]	1.33	0.293	0.0985
COc1ccccc1CNc1ccc(-c2cnc(OC)c(F)c2)c2nncn12 [Example 50, 8-(5-fluoro-6-methoxypyridin-3-yl)-N-(2-methoxybenzyl)-[1,2,4]triazolo[4,3-a] pyridin-5-amine]	3.19	0.374	0.0915
COc1ncc(-c2ccc(NCc3ccccc3OC)n3cnnc23)cn1 [Example 52, N-(2-methoxybenzyl)-8-(2-methoxypyrimidin-5-yl)-[1,2,4]triazolo[4,3-a]pyridin-5-amine]	0.735	0.106	0.0894
COc1ccccc1CNc1ccc(-c2ccc(S(C)(=O)=O)nc2)c2nncn12 [Example 61, N-(2-methoxybenzyl)-8-(6-(methylsulfonyl)pyridin-3-yl)-[1,2,4]triazolo[4,3-a] pyridin-5-amine]	0.538	0.0619	0.0438

Molecules with a lower IC50 [1], results first:

IC50 [1] [µM]	IC50 [2] [µM]	IC50 [3] [µM]	SMILES
0.23	0.0566	0.019	COc1ccccc1CNc1ccc(-c2ccc(CN3CC(F)(F)C3)cc2)c2nncn12 [Example 54, 8-(4-((3,3-difluoroazetidin-1-yl)methyl)phenyl)-N-(2-methoxybenzyl)-[1,2,4] triazolo[4,3-a]pyridin-5-amine]
0.206	0.0279	0.0165	COc1ccccc1CNc1ccc(-c2ccc(C(=O)N3CCCC3)cc2)c2nncn12 [Example 42, (4-(5-((2-methoxybenzyl)amino)-[1,2,4]triazolo[4,3-a]pyridin-8-yl)phenyl) (pyrrolidin-1-yl)methanone]
0.183	0.0395	0.0159	COc1ccccc1CNc1ccc(-c2ccc(S(=O)(=O)C(C)C)cc2)c2nncn12 [Example 57, 8-(4-(isopropylsulfonyl)phenyl)-N-(2-methoxybenzyl)-[1,2,4]triazolo[4,3-a] pyridin-5-amine]
0.144	0.0365	0.0279	COc1ccccc1CNc1ccc(-c2ccc(S(=O)(=O)C3CCNCC3)cc2)c2nncn12 [Example 53, N-(2-methoxybenzyl)-8-(4-(piperidin-4-ylsulfonyl)phenyl)-[1,2,4]triazolo[4,3-a] pyridin-5-amine]
0.142	0.038	0.0174	COc1ccccc1CNc1ccc(-c2ccc(C(C)N3CCCC3)cc2)c2nncn12 (stereo not drawn) [Example 32, N-(2-methoxybenzyl)-8-(4-(1-(pyrrolidin-1-yl)ethyl)phenyl)-[1,2,4] triazolo[4,3-a]pyridin-5-amine]
0.13	0.0885	0.033	CCS(=O)(=O)c1ccc(-c2ccc(NCc3ccccc3OC)n3cnnc23)cc1 [Example 56, 8-(4-(ethylsulfonyl)phenyl)-N-(2-methoxybenzyl)-[1,2,4]triazolo[4,3-a]pyridin-5-amine]
0.0877	0.0231	0.013	COc1ccccc1CNc1ccc(-c2ccc(CN3CCC3)cc2)c2nncn12 [Example 29, 8-(4-(azetidin-1-ylmethyl)phenyl)-N-(2-methoxybenzyl)-[1,2,4]triazolo[4,3-a] pyridin-5-amine]
0.0233	0.0076	0.0177	COc1cccc(F)c1CNc1ccc(-c2ccc(CN(C)C)cc2)c2nncn12 [Example 45, 8-(4-((dimethylamino)methyl)phenyl)-N-(2-fluoro-6-methoxybenzyl)-[1,2,4] triazolo[4,3-a]pyridin-5-amine]
